# ChEMBL document CHEMBL4418306, “Quinolinone lysyl oxidase-like 2 inhibitors and uses thereof” (2017)
# Calls of active or inactive are those of the source. The calls are words filed in the database; no cut-off is given here.
# System: Mus musculus
# Experiment: Antifibrotic activity in C57BL/6 mouse model of bleomycin-induced lung fibrosis assessed as reduction in collagen level in lung at 60 mg/kg, po pre-treated 1 hr to 1 day before bleomycin injection and measured after 14 to 28 days by hydroxyproline assay
# Type: functional, organism-based
smiles,measurement,value
NCc1cc(=O)c2cc(Br)ccc2[nH]1,Activity,Active
